1 compound from article PMC11233931, “Remodeling tumor‐associated macrophage for anti‐cancer effects by rational design of irreversible inhibition of mitogen‐activated protein kinase‐activated protein kinase 2” (MedComm, 2024) can be followed below.

By inhibition is commonly meant the change of the read-out against control, counted positive when it falls.

SMILES strings stand for the structures.

Holding throughout (assay): Eurofins kinase selectivity profile against 380 other human recombinant kinases (Table S2)
Common to all, as to assay type: biochemical

The target of test [1] is T1, 380 human recombinant protein kinases (Homo sapiens, UniProt P07948).
T1 construct: purchased Eurofins (Celle Lévescault)
The following applies: Lyn(h), read-out: Inhibition rate. In a few lines:
(§1)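 To gauge specificity for MK2, the compound is profiled externally at various concentrations on recombinant human kinases, 380 in total.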

For test [2], the target named is T2, 380 human recombinant protein kinases (Homo sapiens, UniProt Q07002).
T2 construct: purchased Eurofins (Celle Lévescault)
The following applies: CDK18/cyclinY(h), read-out: Inhibition rate. The method, boiled down: as §1

Test [3] addresses T3, 380 human recombinant protein kinases (Homo sapiens, UniProt Q8WXR4).
T3 construct: purchased Eurofins (Celle Lévescault)
T3 sequence (Q8WXR4 1-1341): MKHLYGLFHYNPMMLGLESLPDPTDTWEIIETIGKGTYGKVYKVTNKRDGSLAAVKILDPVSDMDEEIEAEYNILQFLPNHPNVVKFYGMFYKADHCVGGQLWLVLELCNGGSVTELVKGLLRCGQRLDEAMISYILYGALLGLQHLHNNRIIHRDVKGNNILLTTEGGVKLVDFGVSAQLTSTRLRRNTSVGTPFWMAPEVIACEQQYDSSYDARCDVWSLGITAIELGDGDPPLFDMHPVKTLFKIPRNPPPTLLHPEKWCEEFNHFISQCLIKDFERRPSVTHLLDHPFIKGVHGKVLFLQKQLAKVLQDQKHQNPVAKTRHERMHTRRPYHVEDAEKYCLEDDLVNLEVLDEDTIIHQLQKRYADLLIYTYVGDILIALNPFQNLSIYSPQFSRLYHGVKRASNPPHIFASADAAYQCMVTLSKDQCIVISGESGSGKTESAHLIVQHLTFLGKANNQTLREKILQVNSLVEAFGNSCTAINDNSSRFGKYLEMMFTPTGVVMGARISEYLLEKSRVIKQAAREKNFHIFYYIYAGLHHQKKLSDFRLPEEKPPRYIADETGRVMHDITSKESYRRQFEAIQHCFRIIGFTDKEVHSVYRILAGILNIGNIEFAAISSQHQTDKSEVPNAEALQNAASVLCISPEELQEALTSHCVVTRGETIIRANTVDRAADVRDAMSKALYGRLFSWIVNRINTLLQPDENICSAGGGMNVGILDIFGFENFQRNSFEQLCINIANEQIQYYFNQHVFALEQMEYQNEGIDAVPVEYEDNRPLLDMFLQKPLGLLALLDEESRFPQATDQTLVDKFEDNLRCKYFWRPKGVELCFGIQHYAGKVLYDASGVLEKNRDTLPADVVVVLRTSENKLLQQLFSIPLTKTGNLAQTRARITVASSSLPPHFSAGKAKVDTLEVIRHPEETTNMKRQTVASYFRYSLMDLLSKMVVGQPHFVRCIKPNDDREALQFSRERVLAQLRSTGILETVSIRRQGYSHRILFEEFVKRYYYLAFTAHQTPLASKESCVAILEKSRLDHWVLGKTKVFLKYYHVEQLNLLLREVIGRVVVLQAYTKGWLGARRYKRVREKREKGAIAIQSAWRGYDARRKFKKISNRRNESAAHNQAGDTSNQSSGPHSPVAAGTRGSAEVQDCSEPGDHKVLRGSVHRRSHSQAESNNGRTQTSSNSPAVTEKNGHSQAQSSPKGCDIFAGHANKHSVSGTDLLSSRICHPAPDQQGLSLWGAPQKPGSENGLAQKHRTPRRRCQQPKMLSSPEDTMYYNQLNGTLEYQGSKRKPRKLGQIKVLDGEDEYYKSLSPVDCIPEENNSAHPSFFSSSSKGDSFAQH
The following applies: MYO3B(h), read-out: Inhibition rate. The method, boiled down:
as §1

Test [4] addresses T4, 380 human recombinant protein kinases (Homo sapiens, UniProt Q9Y2U5).
T4 construct: purchased Eurofins (Celle Lévescault)
T4 sequence (Q9Y2U5 1-619): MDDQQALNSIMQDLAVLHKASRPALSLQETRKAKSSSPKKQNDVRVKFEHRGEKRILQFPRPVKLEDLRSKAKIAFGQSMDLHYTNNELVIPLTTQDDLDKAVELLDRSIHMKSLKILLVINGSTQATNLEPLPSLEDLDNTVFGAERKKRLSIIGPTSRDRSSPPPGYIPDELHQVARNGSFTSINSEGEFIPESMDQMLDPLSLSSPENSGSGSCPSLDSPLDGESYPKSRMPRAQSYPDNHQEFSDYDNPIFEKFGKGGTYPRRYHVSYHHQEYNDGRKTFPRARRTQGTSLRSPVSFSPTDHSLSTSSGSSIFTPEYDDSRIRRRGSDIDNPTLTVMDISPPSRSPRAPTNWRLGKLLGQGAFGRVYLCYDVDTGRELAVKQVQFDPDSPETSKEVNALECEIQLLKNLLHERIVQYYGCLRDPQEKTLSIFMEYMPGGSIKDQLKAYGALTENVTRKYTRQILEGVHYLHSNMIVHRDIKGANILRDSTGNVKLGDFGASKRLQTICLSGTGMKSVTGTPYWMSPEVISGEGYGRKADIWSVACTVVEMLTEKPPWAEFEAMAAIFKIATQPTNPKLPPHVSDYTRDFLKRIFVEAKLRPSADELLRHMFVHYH
To be noted: MEKK2(h), read-out: Inhibition rate. In a few lines: as §1

T2 sequence (Q07002 whole entry): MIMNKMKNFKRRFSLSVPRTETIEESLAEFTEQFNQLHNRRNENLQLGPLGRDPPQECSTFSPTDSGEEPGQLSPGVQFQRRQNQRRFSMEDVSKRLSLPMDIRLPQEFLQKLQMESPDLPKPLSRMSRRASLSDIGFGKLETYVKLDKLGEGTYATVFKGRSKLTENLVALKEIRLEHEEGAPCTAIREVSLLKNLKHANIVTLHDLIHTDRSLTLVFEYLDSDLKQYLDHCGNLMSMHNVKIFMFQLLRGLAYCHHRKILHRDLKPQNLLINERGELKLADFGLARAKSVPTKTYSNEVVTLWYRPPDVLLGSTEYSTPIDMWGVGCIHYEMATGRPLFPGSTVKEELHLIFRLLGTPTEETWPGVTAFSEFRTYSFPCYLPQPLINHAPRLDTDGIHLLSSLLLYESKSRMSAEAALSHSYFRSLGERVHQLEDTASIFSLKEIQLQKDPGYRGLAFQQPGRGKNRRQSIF
T1 sequence (P07948 whole entry): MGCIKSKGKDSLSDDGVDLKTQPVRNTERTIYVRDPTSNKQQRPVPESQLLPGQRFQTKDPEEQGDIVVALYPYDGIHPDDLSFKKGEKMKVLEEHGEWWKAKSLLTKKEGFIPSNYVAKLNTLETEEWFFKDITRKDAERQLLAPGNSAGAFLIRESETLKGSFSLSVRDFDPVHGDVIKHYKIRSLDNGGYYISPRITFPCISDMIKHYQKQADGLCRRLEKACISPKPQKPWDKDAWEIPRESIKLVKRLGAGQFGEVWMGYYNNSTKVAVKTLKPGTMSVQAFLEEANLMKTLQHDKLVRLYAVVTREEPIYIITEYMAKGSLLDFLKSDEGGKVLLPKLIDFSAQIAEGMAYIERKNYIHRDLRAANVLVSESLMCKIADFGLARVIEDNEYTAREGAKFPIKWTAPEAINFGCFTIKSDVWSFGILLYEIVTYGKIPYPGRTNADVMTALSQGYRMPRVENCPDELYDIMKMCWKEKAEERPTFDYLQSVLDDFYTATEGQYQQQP

As for `C=CC(=O)Nc1cc(-c2cc(-c3cc4c([nH]3)CCNC4=O)ccn2)ccc1OC(F)(F)F` [compound 11], the inhibition at 0.01 µM in test [1] (10 nM) was -1%; in test [2] (10 nM) it was -5%; in test [3] (10 nM) it was 3%; in test [4] (10 nM), -3%. Also, the inhibition at 0.1 µM in test [1] (100 nM) is -11%; in test [2] (100 nM) it was 2%; in test [3] (100 nM), 4%; in test [4] (100 nM), 2%. Besides, the inhibition at 1 µM was -11% in test [1] (1000 nM), -3% in test [2] (1000 nM), 16% in test [3] (1000 nM) and -2% in test [4] (1000 nM).
